According to patent US8859535B2, “Hydroxy substituted isoquinolinone derivatives” (Novartis AG, priority 2011, dated 2014):

How the values were obtained:
[1] = target: T1, human MDM2 protein (amino acids 2-188) (Homo sapiens, UniProt Q00987); experiment: p53-MDM2 TR-FRET assay (p53-MDM2 Assay 1); assay type: binding; conditions: 1.25 nM MDM2-biotinylated, 10 nM Cy5-p53 peptide; read-out: IC50 (μM) of p53-Hdm2 inhibition (TR-FRET) Assay 1
T1 construct: human MDM2 protein (amino acids 2-188); made in house
Description: (§1) Time Resolved Fluorescence Energy Transfer (TR-FRET) Assay
(§2) The inhibition of p53-MDM2 and p53-MDM4 interactions is measured by time resolved fluorescence energy transfer (TR-FRET). Fluorescence energy transfer (or Foerster resonance energy transfer) describes an energy transfer between donor and acceptor fluorescent molecules. For this assay, human MDM2 protein (amino acids 2-188) and human MDM4 protein (amino acids 2-185), tagged with a C-terminal biotin moiety, are used in combination with a Europium labeled streptavidin (Perkin Elmer, Inc., Waltham, Mass., USA) serving as the donor fluorophore. The p53 derived, Cy5 labeled peptide Cy5-TFSDLWKLL (p53 aa18-26) is the energy acceptor. Upon excitation of the donor molecule at 340 nm, binding interaction between MDM2 or MDM4 and the p53 peptide induces energy transfer and enhanced response at the acceptor emission wavelength at 665 nm. Disruption of the formation of the p53-MDM2 or p53-MDM4 complex due to an inhibitor molecule binding to the p53 binding site of MDM2 or MDM4 results in increased donor emission at 620 nm. The ratiometric FRET assay readout is calculated from the raw data of the two distinct fluorescence signals measured in time resolved mode (fluorescence 665 nm/fluorescence 620 nm×1000).
(§3) After addition of 1.25 nM MDM2-biotinylated or 2.5 nM MDM4-biotinylated (internal preparations), and 0.625 nM Europium labeled streptavidin (Perkin Elmer), the solution is pre-incubated for 15 minutes at room temperature, then 10 nM Cy5-p53 peptide (internal preparation) is added before an incubation at room temperature for 15 minutes prior to reading the plate. For measurement of samples, a Victor II microplate reader (Perkin Elmer) is used with the following settings: Excitation 340 nm, Emission Donor 620 nm and Emission Acceptor 665 nm. IC50 values are calculated by curve fitting using XLfit. If not specified, reagents are purchased from Sigma-Aldrich Chemie GmBH, Buchs, Switzerland.
(§4) This assay was used to evaluate compounds displaying inhibition of p53-MDM2 interaction and p53-MDM4 interaction at IC50s of 0.005 to 50 μM (p53-MDM2 Assay 1 and p53-MDM4 Assay 1, respectively). For selected compounds displaying IC50s between […] on MDM2, a slightly modified assay is used with the following adaptations: 0.1 nM MDM2, 0.1 nM Europium labeled streptavidin and Tecan genios Pro is used as a microplate reader for the fluorescence measurements (p53-MDM2 Assay 2).

[2] = target: T2, human MDM4 protein (amino acids 2-185) (Homo sapiens, UniProt O15151); experiment: p53-MDM4 TR-FRET assay (p53-MDM4 Assay 1); assay type: binding; conditions: 2.5 nM MDM4-biotinylated, 10 nM Cy5-p53 peptide; read-out: IC50 (μM) of p53-Hdm4 inhibition (TR-FRET) Assay 1
T2 construct: human MDM4 protein (amino acids 2-185); made in house
T2 sequence (O15151 2-185): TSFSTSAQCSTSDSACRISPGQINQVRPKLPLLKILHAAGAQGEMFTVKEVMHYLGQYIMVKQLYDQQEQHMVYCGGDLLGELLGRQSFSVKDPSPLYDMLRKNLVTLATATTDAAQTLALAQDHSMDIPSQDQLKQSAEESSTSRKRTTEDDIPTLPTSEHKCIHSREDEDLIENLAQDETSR
Description: as §1, §2, §3, §4

T1 sequence (Q00987 2-188): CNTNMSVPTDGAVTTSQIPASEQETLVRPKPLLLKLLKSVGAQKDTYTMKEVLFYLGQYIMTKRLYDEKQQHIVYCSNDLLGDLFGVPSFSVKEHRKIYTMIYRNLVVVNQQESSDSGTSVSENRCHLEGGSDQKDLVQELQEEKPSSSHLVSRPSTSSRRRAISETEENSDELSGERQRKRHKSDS

Compound | IC50 [1] [µM] | IC50 [2] [µM]
COc1cc2c(cc1OC(C)C)[C@H](c1ccc(Cl)cc1)N(c1ccc(C(C)(O)c3ccccn3)cc1)C(=O)C2 (stereo partly drawn) [Example 18, (S)-1-(4-Chloro-phenyl)-2-[4-(1-hydroxy-1-pyridin-2-yl-ethyl)-phenyl]-7-isopropoxy-6-methoxy-1,4-dihydro-2H-isoquinolin-3-one] | 0.0368 | 37.2
COc1cc2c(cc1OC(C)C)[C@H](c1ccc(Cl)cc1)N(c1ccc(C(C)(O)c3ccc(F)c(F)c3)cc1)C(=O)C2 (stereo partly drawn) [Example 19, (S)-1-(4-Chloro-phenyl)-2-{4-[1-(3,4-difluoro-phenyl)-1-hydroxy-ethyl]-phenyl}-7-isopropoxy-6-methoxy-1,4-dihydro-2H-isoquinolin-3-one] | 0.0446 | 87.2
COc1cc(OC)cc(C(C)(O)c2ccc(N3C(=O)Cc4cc(OC)c(OC(C)C)cc4[C@@H]3c3ccc(Cl)cc3)cc2)c1 (stereo partly drawn) [Example 22, (S)-1-(4-Chloro-phenyl)-2-{4-[1-(3,5-dimethoxy-phenyl)-1-hydroxy-ethyl]-phenyl}-7-isopropoxy-6-methoxy-1,4-dihydro-2H-isoquinolin-3-one] | 0.0225 | 21.7
COc1ccc(C(C)(O)c2ccc(N3C(=O)Cc4cc(OC)c(OC(C)C)cc4[C@@H]3c3ccc(Cl)cc3)cc2)cn1 (stereo partly drawn) [Example 23, (S)-1-(4-Chloro-phenyl)-2-{4-[1-hydroxy-1-(6-methoxy-pyridin-3-yl)-ethyl]-phenyl}-7-isopropoxy-6-methoxy-1,4-dihydro-2H-isoquinolin-3-one] | 0.0159 | 24.7
COc1cc2c(cc1OC(C)C)[C@H](c1ccc(Cl)cc1)N(c1ccc(C(C)(O)c3ccc(NC(C)=O)cc3)nc1)C(=O)C2 (stereo partly drawn) [Example 24, N-[4-(1-{5-[(S)-1-(4-Chloro-phenyl)-7-isopropoxy-6-methoxy-3-oxo-3,4-dihydro-1H-isoquinolin-2-yl]-pyridin-2-yl}-1-hydroxy-ethyl)-phenyl]-acetamide] | 0.0544 | 61.3
COc1cc2c(cc1OC(C)C)[C@H](c1ccc(Cl)cc1)N(c1ccc(C(C)(O)c3ccc(NC(C)=O)cc3)cn1)C(=O)C2 (stereo partly drawn) [Example 25, N-[4-(1-{6-[(S)-1-(4-Chloro-phenyl)-7-isopropoxy-6-methoxy-3-oxo-3,4-dihydro-1H-isoquinolin-2-yl]-pyridin-3-yl}-1-hydroxy-ethyl)-phenyl]-acetamide] | 0.0112 | 19.5
COc1cc2c(cc1OC(C)C)[C@H](c1ccc(Cl)cc1)N(c1ccc([C@@](C)(O)c3ccc(NC(C)=O)cc3)cc1)C(=O)C2 [Example 26, N-[4-((S)-1-{4-[(S)-1-(4-Chloro-phenyl)-7-isopropoxy-6-methoxy-3-oxo-3,4-dihydro-1H-isoquinolin-2-yl]-phenyl}-1-hydroxy-ethyl)-phenyl]-acetamide] | 0.0043 | 8.25
COc1cc2c(cc1OC(C)C)[C@H](c1ccc(Cl)cc1)N(c1ccc([C@](C)(O)c3ccc(NC(C)=O)cc3)cc1)C(=O)C2 [Example 27, N-[4-((R)-1-{4-[(S)-1-(4-Chloro-phenyl)-7-isopropoxy-6-methoxy-3-oxo-3,4-dihydro-1H-isoquinolin-2-yl]-phenyl}-1-hydroxy-ethyl)-phenyl]-acetamide] | 0.0458 | 36.3
COc1cc2c(cc1OC(C)C)[C@H](c1ccc(Cl)cc1)N(c1ccc(C(C)(O)c3ccc(NC(C)=O)cc3)c(F)c1)C(=O)C2 (stereo partly drawn) [Example 28, N-[4-(1-{4-[(S)-1-(4-Chloro-phenyl)-7-isopropoxy-6-methoxy-3-oxo-3,4-dihydro-1H-isoquinolin-2-yl]-2-fluoro-phenyl}-1-hydroxy-ethyl)-phenyl]-acetamide] | 0.0066 | 9.7
COc1cc2c(cc1OC(C)C)[C@H](c1ccc(Cl)cc1)N(c1ccc(C(C)(O)CNC(C)=O)cc1)C(=O)C2 (stereo partly drawn) [Example 29, N-(2-{4-[(S)-1-(4-Chloro-phenyl)-7-isopropoxy-6-methoxy-3-oxo-3,4-dihydro-1H-isoquinolin-2-yl]-phenyl}-2-hydroxy-propyl)-acetamide] | 0.143 | 39.7
COc1cc2c(cc1OC(C)C)[C@H](c1ccc(Cl)cc1)N(c1ccc(C(O)C3CCOCC3)cc1)C(=O)C2 (stereo partly drawn) [Example 40, (S)-1-(4-Chloro-phenyl)-2-{4-[hydroxy-(tetrahydro-pyran-4-yl)-methyl]-phenyl}-7-isopropoxy-6-methoxy-1,4-dihydro-2H-isoquinolin-3-one] | 0.0328 | 31.6
COc1cc2c(cc1OC(C)C)[C@H](c1ccc(Cl)cc1)N(c1ccc(C(C)(O)C3CCN(C(=O)OC(C)(C)C)CC3)cc1)C(=O)C2 (stereo partly drawn) [Example 42, 4-(1-{4-[(S)-1-(4-Chloro-phenyl)-7-isopropoxy-6-methoxy-3-oxo-3,4-dihydro-1H-isoquinolin-2-yl]-phenyl}-1-hydroxy-ethyl)-piperidine-1-carboxylic acid tert-butyl ester] | 0.0091 | 14.9
COc1cc2c(cc1OC(C)C)[C@H](c1ccc(Cl)cc1)N(c1ccc(C(C)(O)C3CCNC(=O)C3)cc1)C(=O)C2 (stereo partly drawn) [Example 49, (S)-1-(4-Chloro-phenyl)-2-{4-[1-hydroxy-1-(2-oxo-piperidin-4-yl)-ethyl]-phenyl}-7-isopropoxy-6-methoxy-1,4-dihydro-2H-isoquinolin-3-one] | 0.011 | 8.07

Other lines, results leading:

IC50 [1] [µM] | IC50 [2] [µM] | Compound
0.0023 | 2.31 | COc1cc2c(cc1OC(C)C)[C@H](c1ccc(Cl)cc1)N(c1ccc(C(C)(O)C3CCN(C(C)=O)CC3)cc1)C(=O)C2 (stereo partly drawn) [Example 31, (S)-2-{4-[1-(1-Acetyl-piperidin-4-yl)-1-hydroxy-ethyl]-phenyl}-1-(4-chloro-phenyl)-7-isopropoxy-6-methoxy-1,4-dihydro-2H-isoquinolin-3-one]
0.0051 | 6.03 | COc1cc2c(cc1OC(C)C)[C@H](c1ccc(Cl)cc1)N(c1ccc(C(C)(O)C3CCOCC3)cc1OC)C(=O)C2 (stereo partly drawn) [Example 36, (S)-1-(4-Chloro-phenyl)-2-{4-[1-hydroxy-1-(tetrahydro-pyran-4-yl)-ethyl]-2-methoxy-phenyl}-7-isopropoxy-6-methoxy-1,4-dihydro-2H-isoquinolin-3-one]
0.0117 | 13.8 | COc1cc2c(cc1OC(C)C)[C@H](c1ccc(Cl)cc1)N(c1ccc(C(C)(O)C3CCOCC3)cn1)C(=O)C2 (stereo partly drawn) [Example 37, (S)-1-(4-Chloro-phenyl)-2-{5-[1-hydroxy-1-(tetrahydro-pyran-4-yl)-ethyl]-pyridin-2-yl}-7-isopropoxy-6-methoxy-1,4-dihydro-2H-isoquinolin-3-one]
0.0041 | 4.99 | COc1cc2c(cc1OC(C)C)[C@H](c1ccc(Cl)cc1)N(c1ccc(C(C)(O)C3CCNCC3)cc1)C(=O)C2 (stereo partly drawn) [Example 43, (S)-1-(4-Chloro-phenyl)-2-[4-(1-hydroxy-1-piperidin-4-yl-ethyl)-phenyl]-7-isopropoxy-6-methoxy-1,4-dihydro-2H-isoquinolin-3-one]
0.0089 | 17.4 | COc1cc2c(cc1OC(C)C)[C@H](c1ccc(Cl)cc1)N(c1ccc(C(C)(O)C3CCC(F)(F)CC3)cc1)C(=O)C2 (stereo partly drawn) [Example 45, (S)-1-(4-Chloro-phenyl)-2-{4-[1-(4,4-difluoro-cyclohexyl)-1-hydroxy-ethyl]-phenyl}-7-isopropoxy-6-methoxy-1,4-dihydro-2H-isoquinolin-3-one]
0.0432 | 44.5 | COc1cc2c(cc1OC(C)C)[C@H](c1ccc(Cl)cc1)N(c1ccc(C(C)(O)C3CCOC3)cc1)C(=O)C2 (stereo partly drawn) [Example 48, (S)-1-(4-Chloro-phenyl)-2-{4-[1-hydroxy-1-(tetrahydro-furan-3-yl)-ethyl]-phenyl}-7-isopropoxy-6-methoxy-1,4-dihydro-2H-isoquinolin-3-one]
